These results are taken from PMC11460631, “Inhibition of transient receptor potential vanilloid 3 channels by antimalarial hydroxychloroquine alleviates TRPV3-dependent dermatitis” (The Journal of Biological Chemistry, 2024).

Molecules are shown by their SMILES.

One test has as its system C57BL/6J male mice. The test is described as follows: Carvacrol-induced AD-like mouse model: skin appearance scores and H&E epidermal thickness. It counts as in vivo. The procedure: We therefore generated a carvacrol-induced AD mouse model to test the effect of HCQ.
To investigate the effect of HCQ on carvacrol-induced dermatitis in animals, C57BL/6J male mice (aged 6 weeks) were obtained from the Animal Experimental Center of Hangzhou Medical College (Hangzhou, Zhejiang Province). Mice were housed and maintained in an environment with a 12-h light/dark cycle and a controlled temperature of 22.0 ± 2.0 °C. Food and water were accessible ad libitum. All the animal procedures were approved by the Institutional Animal Care & Use Committee of Zhejiang Center of Laboratory Animals (ZJCLA).
To generate an AD-like mice model, 2% carvacrol (dissolved in 30% ethanol solution) was topically smeared onto the mice dorsum 1 day after hair removal with a depilatory cream (Vetin Depilatory Cream). Mice received a topical administration of an equal volume (200 μl) of 2% carvacrol or in the presence of 2 mg/ml HCQ. […] After the application of carvacrol for 5 days, the external appearance of mice was photographed and then sampled. The external appearance was graded based on three aspects: thickness, erythema/bleeding, and dryness/desquamation, with severity assessed on a score of 0 to 4. The degree of thickness was measured by the thickness of the skin in H&E staining. Skin tissues were either fixed in 4% paraformaldehyde or placed in PBS buffer containing 1% protease inhibitor, facilitating subsequent steps of paraffin embedding or ELISA experiments.
Mice were sacrificed 24 h after the last dose of treatment. Mouse dorsal skin was removed with scissors and forceps before being fixed with 4% paraformaldehyde. Paraffin-embedded tissues were sectioned and stained with H&E. Pictures of stained sections were acquired with a Nikon Eclipse Ti-S microscope with a charge-coupled device camera (DS-Ri2, Nikon).

In a further test the target is T1, hTRPA1 (Homo sapiens, UniProt O75762).
T1 construct: YFP or GFP; expressed in transfected cells; host or cells: HEK293T
Briefly: Whole-cell current recordings, hTRPA1. It counts as cell-based. Conditions: 100 μM HCQ; current activated by 500 μM allyl isothiocyanate. On the procedure:
To elucidate the specificity of HCQ inhibition on TRPV3, we conducted whole-cell current recordings on other known pruritus-related TRP channels, such as hTRPA1, mTRPV1, mTRPV4, and mTRPM8 (Fig. 3, A and F). […] Because of the relatively larger inhibition of HCQ on mTRPM8 current, we tested the concentration dependence of HCQ on mTRPM8 channels.
HEK293T cells are cultured using Dulbecco's modified Eagle's medium containing 10% fetal bovine serum and 1% penicillin-streptomycin in a cell incubator with 5% CO2 at 37 °C. Plasmids of murine TRPV1, TRPV4, TRPM8, and human TRPV3, TRPA1 are labeled with YFP or GFP as indicators for subsequent electrophysiological recordings. Complementary DNA constructs of ion channels were transiently transfected with Lipofectamine 3000 (Invitrogen). And 12 to 18 h after transient transfection, electrophysiological recordings were performed.
Patch-clamp recordings were carried out with a HEKA EPC10 amplifier controlled by PatchMaster software (HEKA; https://www.heka.com/products/products_main.html#soft_pm) ([36]). Patch pipettes were prepared from borosilicate glass and fire-polished to the resistance of 3 to 8 MΩ by P-97 puller for whole-cell recordings. For single-channel recordings, patch pipettes were fire-polished to a higher resistance of 6 to 10 MΩ. […]

T1 sequence (O75762 whole entry): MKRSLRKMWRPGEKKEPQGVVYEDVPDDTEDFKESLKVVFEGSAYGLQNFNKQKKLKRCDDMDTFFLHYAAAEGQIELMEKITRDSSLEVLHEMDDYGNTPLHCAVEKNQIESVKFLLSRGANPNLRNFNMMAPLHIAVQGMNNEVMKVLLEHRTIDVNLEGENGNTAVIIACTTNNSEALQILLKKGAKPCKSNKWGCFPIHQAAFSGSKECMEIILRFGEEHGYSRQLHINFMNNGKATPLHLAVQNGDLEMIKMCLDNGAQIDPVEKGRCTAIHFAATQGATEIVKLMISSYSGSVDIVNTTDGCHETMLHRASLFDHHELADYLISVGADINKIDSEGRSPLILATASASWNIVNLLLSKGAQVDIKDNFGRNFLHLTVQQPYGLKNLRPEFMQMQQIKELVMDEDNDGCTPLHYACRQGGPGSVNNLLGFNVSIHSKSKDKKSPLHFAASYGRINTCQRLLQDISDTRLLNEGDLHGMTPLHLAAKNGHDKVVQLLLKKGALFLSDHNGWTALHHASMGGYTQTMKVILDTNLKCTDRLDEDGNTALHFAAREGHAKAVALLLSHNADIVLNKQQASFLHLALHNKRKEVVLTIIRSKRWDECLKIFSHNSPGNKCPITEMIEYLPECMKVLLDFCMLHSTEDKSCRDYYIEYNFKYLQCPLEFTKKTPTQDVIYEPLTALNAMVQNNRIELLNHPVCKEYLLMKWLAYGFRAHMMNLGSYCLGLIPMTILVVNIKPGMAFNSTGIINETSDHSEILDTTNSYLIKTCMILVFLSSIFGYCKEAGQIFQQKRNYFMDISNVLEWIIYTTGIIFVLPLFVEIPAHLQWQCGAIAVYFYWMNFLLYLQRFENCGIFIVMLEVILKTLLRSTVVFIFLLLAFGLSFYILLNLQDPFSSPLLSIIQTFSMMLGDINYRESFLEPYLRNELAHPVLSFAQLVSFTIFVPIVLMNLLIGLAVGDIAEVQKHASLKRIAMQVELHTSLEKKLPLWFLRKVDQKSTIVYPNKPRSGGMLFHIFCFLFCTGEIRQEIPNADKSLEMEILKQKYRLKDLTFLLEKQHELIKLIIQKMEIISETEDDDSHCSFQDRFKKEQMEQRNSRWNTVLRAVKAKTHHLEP

In turn, `CCN(CCO)CCCC(C)Nc1ccnc2cc(Cl)ccc12` (stereo not shown) [HCQ, hydroxychloroquine] had a dry desquamation score in the test with C57BL/6J male mice (score of 0 to 4, topical, 5 days, 2% carvacrol alone or with HCQ 2 mg/ml) of 1.50 ± 0.22. The molecule also showed an erythema score in the test with C57BL/6J male mice (score of 0 to 4, topical, 5 days, 2% carvacrol alone or with HCQ 2 mg/ml or DXM 1 mg/ml) of 1.67 ± 0.33. In addition, the “epidermal thickness (H&E staining)” value with C57BL/6J male mice (topical with 2% carvacrol, once a day for 5 days, HCQ 2 mg/ml, DXM 1 mg/ml, 200 μl) amounted to 51.49 ± 3.01 μm. For the same molecule, the “reduction of hTRPA1 current” value at hTRPA1 is 11.37% ± 4.10%.
